Assay results: patent US4992450A, “Piperidine opioid antagonists” (Eli Lilly and Company, priority 1989, dated 1991)
Structures can show the parent of a compound that is named as a salt. Where two headings read alike, the source gives them in different places.

Columns and labels:
mu receptor [1] = target: T1, mu receptor (Mus musculus, UniProt P42866); assay: Mouse writhing assay, antagonism of morphine analgesia (mu); format: in vivo, CF-1 male mice; conditions: sc, read-out: Mu AD50
T1 construct: Five CF-1 male mice (Charles River, Portage, Mich.); from tissue; host or cells: whole living CF-1 male mice (in vivo)
T1 sequence (P42866 whole entry): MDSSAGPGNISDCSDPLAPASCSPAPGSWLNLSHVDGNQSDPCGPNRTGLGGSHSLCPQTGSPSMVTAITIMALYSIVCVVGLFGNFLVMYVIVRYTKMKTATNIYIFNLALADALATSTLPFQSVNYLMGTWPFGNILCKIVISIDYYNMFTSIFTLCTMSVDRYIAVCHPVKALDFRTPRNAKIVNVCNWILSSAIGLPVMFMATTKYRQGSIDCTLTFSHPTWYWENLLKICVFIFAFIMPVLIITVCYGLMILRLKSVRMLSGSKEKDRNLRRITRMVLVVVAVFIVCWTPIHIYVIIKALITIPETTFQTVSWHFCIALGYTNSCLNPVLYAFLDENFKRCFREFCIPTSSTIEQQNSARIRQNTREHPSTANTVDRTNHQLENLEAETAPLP

kappa receptor [2] = target: T2, kappa receptor (Cavia porcellus, UniProt P41144); assay: Opioid receptor binding displacement assay, kappa site (guinea pig cortex, 3H ligand); design: species or system male Hartley guinea pigs
T2 construct: guinea pig cortex for the kappa site; from tissue; host or cells: guinea pig cortex, frozen pellet fraction
T2 sequence (P41144 whole entry): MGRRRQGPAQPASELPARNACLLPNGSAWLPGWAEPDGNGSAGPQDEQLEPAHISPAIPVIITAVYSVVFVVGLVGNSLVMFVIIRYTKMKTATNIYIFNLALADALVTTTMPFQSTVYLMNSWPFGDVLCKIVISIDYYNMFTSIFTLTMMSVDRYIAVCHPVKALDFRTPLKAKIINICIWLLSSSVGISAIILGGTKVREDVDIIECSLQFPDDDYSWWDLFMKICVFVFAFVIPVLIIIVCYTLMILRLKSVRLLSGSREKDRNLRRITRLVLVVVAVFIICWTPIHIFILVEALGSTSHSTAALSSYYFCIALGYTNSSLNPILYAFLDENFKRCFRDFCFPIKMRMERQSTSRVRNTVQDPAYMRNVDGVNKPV
Procedure: (§1) This assay was conducted by the following procedure.
(§2) Male Sprague Dawley rats for mu and delta site experiments and male Hartley guinea pigs for kappa site experiments were sacrificed via decapitation and the brains were removed. The brain tissue, rat whole brain minus cerebellum for mu and delta sites and guinea pig cortex for the kappa site, was homogenized in a Teflon and glass tissue homogenizer. A supernatant I, pellet IV, fraction was frozen in a nitrogen freezer at 1.33 g/ml concentration and stored for not longer than five weeks prior to use. Pellets were rehydrated with physiological buffer prior to use.
(§3) The reaction was initiated by the addition of the rehydrated tissue which has been preincubated at 37° C. for 20 minutes. The reaction mixture was incubated in a 37° C. water bath for 20 minutes. The reaction was terminated by rapid filtration, (Amicon vacuum manifolds), through Whatman GF/C glass filters that had been presoaked in Krebs-Hepes buffer pH 7.4. The filters were then washed 2× with 5 ml of ice cold Krebs-Hepes buffer pH 7.4. Washed filters were placed in scintillation vials and 10 ml PCS, (Amersham), was added and samples counted in a Searle D-300 beta counter. Means and standard error statistics were calculated for triplicate experimental determinations in certain cases. The procedure was slightly modified for the kappa site. The tissue was pretreated with 100 nM concentrations of mu and delta receptor site blockers. The incubation time for the reaction mixture was 45 minutes at 37° C.

kappa receptor [3] = target: T3, kappa receptor (Mus musculus, UniProt P33534); assay: in vivo; design: species or system CF-1 male mice; conditions: sc, read-out: Kappa AD50
T3 construct: Five CF-1 male mice (Charles River, Portage, Mich.); from tissue; host or cells: whole living CF-1 male mice (in vivo)
T3 sequence (P33534 whole entry): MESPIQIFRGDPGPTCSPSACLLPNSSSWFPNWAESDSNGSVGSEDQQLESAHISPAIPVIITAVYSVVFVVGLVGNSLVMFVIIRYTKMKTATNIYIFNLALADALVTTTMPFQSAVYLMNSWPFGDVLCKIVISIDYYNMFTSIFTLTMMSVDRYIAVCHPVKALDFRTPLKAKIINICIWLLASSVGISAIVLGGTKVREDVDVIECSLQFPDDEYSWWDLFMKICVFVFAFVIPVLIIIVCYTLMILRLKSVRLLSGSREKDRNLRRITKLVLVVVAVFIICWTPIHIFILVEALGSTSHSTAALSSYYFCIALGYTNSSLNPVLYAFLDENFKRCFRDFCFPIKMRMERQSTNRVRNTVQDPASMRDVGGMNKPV

kappa receptors = target: T4, kappa receptors (Rattus norvegicus, UniProt P34975); assay: Rat diuresis assay, antagonism of bremazocine-induced urination; format: in vivo, male Long-Evans hooded rats; conditions: sc, rats, s.c., urinary output reduced to 50% of effect of 0.08 mg/kg bremazocine alone
T4 construct: sixty male Long-Evans hooded rats; from tissue; host or cells: whole living male Long-Evans hooded rats (in vivo)
T4 sequence (P34975 whole entry): as the sequence (P33534 whole entry) above, with D11E, S17A, S51P, A308V counted along it
Procedure: As such, the compounds of the invention were also evaluated in a rat diuresis assay conducted according to the following procedure described by Leander et al. in Drug Development Research 4:421-427 (1984) in an effort to further establish the ability of the present compounds to block kappa receptors.
According to this procedure, sixty male Long-Evans hooded rats (Charles River Breeding Laboratories, Portage, Mich.) weighing between about 300 and 500 grams each were housed either individually or in pairs in a temperature-controlled (23° C.) colony room which was illuminated between 6:00 A.M. and 6:00 P.M. Rodent chow and tap water were continuously available except during the measurement of urine output. The animals were used repeatedly, but no more frequently than twice a week.
The animals were then injected with various doses of the test compounds. To measure urine output, the animals were removed from the home cages, weighed, injected and placed in metabolism cages for 5 hr. Excreted urine was funneled into graduated cylinders. Cumulative urine volumes were determined at designated time intervals, usually at 2 and 5 hr after injection.
The compounds which are salt forms were dissolved in distilled water. If necessary, the compounds were dissolved in distilled water with the aid of either a few drops of lactic acid or hydrochloric acid and gentle warming. All injections were s.c. in a volume of 1 ml/kg of body weight. During tests for antagonism, two injections were given, one on each side of the body.
In the Table, column 1 provides the Example Number of the compound tested; column 2, the amount of compound in mg/kg necessary to reduce the urinary output to 50% of the effect produced by 0.08 mg/kg of bremazocine alone two hours after injection of bremazocine and the test compound; and column 3, the amount of compound in mg/kg necessary to reduce the urinary output to 50% of the effect produced by 0.08 mg/kg of bremazocine alone five hours after injection of bremazocine and the test compound.

mu receptor [4] = target: T5, mu receptor (Rattus norvegicus, UniProt P33535); assay: Opioid receptor binding displacement assay, mu site (rat whole brain minus cerebellum, 3H ligand); design: species or system Male Sprague Dawley rats
T5 construct: rat whole brain minus cerebellum for mu and delta sites; from tissue; host or cells: rat whole brain minus cerebellum, frozen pellet fraction
T5 sequence (P33535 whole entry): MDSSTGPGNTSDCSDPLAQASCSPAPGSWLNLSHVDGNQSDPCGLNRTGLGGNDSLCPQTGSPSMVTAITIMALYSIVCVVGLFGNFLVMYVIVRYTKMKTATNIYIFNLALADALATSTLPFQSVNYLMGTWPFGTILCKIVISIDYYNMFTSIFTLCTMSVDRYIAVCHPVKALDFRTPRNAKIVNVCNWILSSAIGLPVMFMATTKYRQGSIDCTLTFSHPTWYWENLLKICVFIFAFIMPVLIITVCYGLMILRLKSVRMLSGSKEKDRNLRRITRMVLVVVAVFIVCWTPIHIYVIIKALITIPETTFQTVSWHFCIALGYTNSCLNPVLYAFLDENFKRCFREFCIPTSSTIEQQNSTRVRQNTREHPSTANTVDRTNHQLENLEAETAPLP
Procedure: as §1, §2, §3

[5] = tested on: meal fed obese Zucker rats; assay: Food consumption assay in meal fed obese Zucker rats; format: in vivo; conditions: Rattus norvegicus, sc, 4 h, amount to decrease food consumption 20% during first four hours
Excerpt: The following assay was employed to evaluate the ability of the compounds of the invention to effect food and water consumption of meal fed obese Zucker rats.
According to this procedure, 3-4 month old obese Zucker rats were trained to eat food daily from 8:00 A.M. to 4:00 P.M. only, such that the body weight gain approximates that if the rats were fed ad libitum. These rats were allowed to consume water at all times. Four groups of rats with four rats in each group, two female and two male, were formed. One group served as control for the other three groups each day. Each of the other groups were given a subcutaneous dose of the compound to be evaluated. The test compound was formulated in physiological saline containing 10% dimethylsulfoxide by volume.
Animals remained drug free for 4 days before the next test. Food and water consumption of each rat were measured for the first four hours. A test on one compound was run for three consecutive days. The drug effect was expressed as the percent of the control for that test day.
In the Table, column 1 gives the Example Number of the compound evaluated; and column 2 provides the ED20 in mg/kg, wherein ED20 represents the amount of compound evaluated in mg/kg necessary to decrease food consumption 20% during the first four hours of the experiment.

[6] = 2 h, two hours after injection, read-out: AD50 Two Hours
[7] = 5 h, five hours after injection, read-out: AD50 Five Hours

Row | SMILES | ED50 (mu receptor [1]) [mg/kg] | Ki (kappa receptor [2]) [nM] | ED50 (kappa receptor [3]) [mg/kg] | ED50 (kappa receptors; [6]) [mg/kg] | ED50 (kappa receptors; [7]) [mg/kg] | Ki (mu receptor [4]) [nM] | ED20 [5] [mg/kg] | Ki (kappa receptor [2]; guinea pig cortex, pH 7.4, 37° C., 45 minutes, mu and delta sites blocked (100 nM), read-out: Ki Kappa) [nM] | Ki (mu receptor [4]; rat brain minus cerebellum, pH 7.4, 37° C., 20 minutes, read-out: Ki Mu) [nM]
1 | C=C(C)CCCN1CCC(C)(c2cccc(O)c2)C(C)C1 (stereo not drawn) [Example 3, trans-(±)-1-(4-Methyl-4-pentenyl)-3,4-dimethyl-4-(3-hydroxyphenyl)piperidine hydrochloride] | 0.08 | 13.9 ± 6.66 | 0.29 | 0.27 | 0.39 | 2.95 ± 1.12 | 0.29 | – | –
2 | CC(C)CCCN1CCC(C)(c2cccc(O)c2)C(C)C1 (stereo not drawn) [Example 15, trans-(±)-1-(4-Methylpentyl)-3,4-dimethyl-4-(3-hydroxyphenyl)piperidine hydrochloride] | 0.11 | 9.43 ± 1.67 | 0.09 | 0.27 | 0.39 | 1.25 ± 0.4 | 3.65 | – | –
3 | C[C@H]1CN(CC[C@H](O)C2CCCCC2)CC[C@@]1(C)c1cccc(O)c1 [Example 23, trans-(+)-1-[S-(3-Hydroxy-3-cyclohexylpropyl)]-3,4-dimethyl-4-(3-hydroxyphenyl)piperidine] | 0.01 | – | 0.07 | 0.4 | 0.38 | – | 0.05 | 2.02 ± 0.46 | 0.41 ± 0.09
